From PubChem BioAssay AID179 (DTP/NCI, 2004)
The source made the active and inactive calls.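 The calls were made as follows: active = compounds giving half or more protection of infected cells from virus-caused growth loss, again on retest; inactive = the rest.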 Where a SMILES comes first, the peptide text is derived from it.

System: CEM cells HIV-1 protection, formazan growth assay
Assay: NCI AIDS Antiviral Assay
Conditions: for IC50: measured here: growth of uninfected CEM cells
Method in brief: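 Category rules: moderately active means at least 50% protection on retest, and confirmed active means 100% protection reproducibly. The underlying data came from a formazan growth assay in HIV-1-infected CEM cells.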

Compound	EC50	IC50	outcome
COc1nc(NC2OCC(O)C(O)C2O)c(NC2OCC(O)C(O)C2O)c(=O)n1C (stereo not drawn)	> 575 µM	> 575 µM	–
OC1=CN=C(C2CC2)Oc2ccccc21	> 178 µM	117 µM	–
CC(C)CC(NC(=O)CNC(=O)C(CC(C)C)NC(=O)C(Cc1c[nH]cn1)NC(=O)C(CC(N)=O)NC(=O)C1CCCN1C(=O)C(C)NC(=O)C(Cc1ccc(O)cc1)NC(=O)C(C)NC(=O)C1CCCN1C(=O)C(CCC(=O)O)NC(=O)C(CC(=O)O)NC(=O)C(Cc1ccccc1)NC(=O)C(CC(N)=O)NC(=O)C(C)N)C(=O)O (stereo not drawn) (H-ANFDEPAYAPNHLGL-OH; configuration not given here)	> 38 µM	> 38 µM	–
COc1ccc(C[C@@H]2Cc3cc(OC)c(OC)cc3CN2C)cc1	> 692 µM	45.7 µM	–
O=c1/c(=C\C=C\c2ccccc2)sc2n1CCN=2	–	–	inactive
CN(C)P(=O)(N(C)C)N(C)C.[CH3][Sn]([CH3])([Cl])[Cl]	–	–	inactive
CC(=O)Nc1ccc(/C=N\N2C(=O)c3ccccc3C2=O)cc1	> 61.7 µM	> 61.7 µM	–
COc1ccccc1C1c2cc3c(cc2OC(N2CCOCC2)C1C)OCO3 (stereo not drawn)	> 200 µM	15.8 µM	–
CCOC(=O)N(C)C1(c2ccccc2)CCN(CCCC(=O)c2ccc(F)cc2)CC1	> 200 µM	83.2 µM	–
CC1CC(c2ccc(Cl)c(Cl)c2)=Nc2ccccc2S1 (stereo not drawn)	> 6.17 µM	> 6.17 µM	–
COC(=O)CCN1c2ccccc2Sc2ccccc21	> 66.1 µM	> 66.1 µM	–
COc1cc2c(c3oc(=O)ccc13)[C@@H](OC(=O)C13CCC(C)(C(=O)O1)C3(C)C)[C@@H](OC(=O)C13CCC(C)(C(=O)O1)C3(C)C)C(C)(C)O2 (stereo partly drawn)	0.324 µM	> 200 µM	–
NC(=O)c1cccn1Cc1ccccc1SSc1ccccc1Cn1cccc1C(N)=O	> 15.8 µM	7.08 µM	–
CC1(C)CC(C)(C)C1=NNC(N)=O	> 200 µM	> 200 µM	–
CC(=O)Nc1ccc(NNc2cc(=O)n(C)c(=O)[nH]2)cc1	> 200 µM	2.4 µM	–
Cn1c(COc2ccc(/C=N/NC(=O)c3cccc(C(=O)N/N=C/c4ccc(OCc5c[n+]6ccccc6n5C)cc4)c3)cc2)c[n+]2ccccc12	> 6.92 µM	> 6.92 µM	–
CCNC(=O)c1ccccc1S(C)=O (stereo not drawn)	> 200 µM	> 200 µM	–
O=c1oc2cc(O)ccc2c(O)c1C(c1ccc(/C=C/c2ccccc2)cc1)c1c(O)c2ccc(O)cc2oc1=O	> 200 µM	74.1 µM	–
CCOC(=O)C[C@@]12CCCNC1(C)CCc1ccccc12 (stereo partly drawn)	–	–	inactive
CCCCC1C(=O)N2c3ccccc3-c3ccccc3N2C1=O	–	–	inactive

Compound	EC50	IC50	outcome
[O-][n+]1onc2ncccc21	> 138 µM	19.5 µM	–
CC(C)N1CCCOC(c2ccc([N+](=O)[O-])cc2)O1 (stereo not drawn)	> 200 µM	112 µM	–
Cc1c(CCN=P(c2ccccc2)(c2ccccc2)c2ccccc2)c(=O)n2c([nH]c3ccccc32)c1C#N	> 200 µM	31.6 µM	–
Cc1ccc(/C=C2\CCCCCC2=O)cc1	> 200 µM	182 µM	–
O=c1[nH]cnc2c1ncn2Cc1ccccc1CCO	> 93.3 µM	> 93.3 µM	–
Clc1cc(Cl)c(SSc2cc(Cl)c(Cl)cc2Cl)cc1Cl	> 200 µM	> 200 µM	–
NC1=NS(=O)(=O)Nc2nc(-c3ccc(Cl)cc3)[nH]c21	> 200 µM	> 200 µM	–
CC1=C(/C=C/C(C)=C/C2CC(N(C)C)=CC(=O)O2)C(C)(C)CCC1 (stereo not drawn)	–	–	inactive
CC(=O)Oc1ccc(-c2oc3c([C@H]4C=C(C)CC(c5ccc(OC(C)=O)cc5OC(C)=O)[C@@H]4C(=O)c4ccc(OC(C)=O)c(CC=C(C)C)c4OC(C)=O)c(OC(C)=O)cc(OC(C)=O)c3c(=O)c2CC=C(C)C)c(OC(C)=O)c1 (stereo partly drawn)	> 8.13 µM	> 8.13 µM	–
O=C(O)CSCc1cc(C(=O)Nc2ccc(/C=C/c3ccc(NC(=O)c4cc(CSCC(=O)O)c5cccnc5c4O)cc3S(=O)(=O)O)c(S(=O)(=O)O)c2)c(O)c2ncccc12	0.832 µM	22.4 µM	–
Cc1ccc(Cl)c2c(=O)c3ccc([N+](=O)[O-])cc3sc12	> 151 µM	> 151 µM	–
Cn1c2c(c3ccccc31)CCN(CCN1CCN(c3cccc(Cl)c3)CC1)C2=O	> 8.51 µM	> 8.51 µM	–
O=C1c2ccccc2C(=O)c2c1oc1cc(O)c(Cl)cc21	> 16.6 µM	> 16.6 µM	–
CCCCC(CC)C(=O)OC(C)CN(CC(C)OC(=O)C(CC)CCCC)C(=O)C(C)OC(=O)C(CC)CCCC (stereo not drawn)	–	–	inactive
O=c1[nH]c2[nH]c(-c3ccc(Br)cc3)cc2c2ccccc12	> 200 µM	> 200 µM	–
CC(C)OC(=O)[C@@H]1OC(C)(C)O[C@H]1C(=O)OC(C)C	> 200 µM	> 200 µM	–
COC(=O)CCC(C)C1CCC2C3=CC(=O)C4CC(OC(C)=O)CCC4(C)C3CC(OC(C)=O)C21C (stereo not drawn)	> 51.3 µM	37.2 µM	–
C=C1CC(C#N)(C#N)[C@H]2C3CCCC3C[C@@H]12 (stereo partly drawn) (tested in a mixture with another compound)	> 200 µM	33.1 µM	–
CC(=O)c1cc2c3c(c1)c1cc4c(cc1c(=O)n3CC2)OCO4	–	–	inactive
COc1ccccc1NC(=S)N=Nc1c(O)[nH]c2ccccc12	> 200 µM	174 µM	–

Compound	EC50	IC50	outcome
CCCCCCOP(OCCCCCC)OCCCCCC	–	–	inactive
Nc1[nH]c(=S)c2c(N)n[nH]c2c1C(=O)Nc1ccc(Cl)cc1	> 200 µM	1.55 µM	–
CC(C)C(NC(=O)C(N)CCC(=O)O)C(=O)O (stereo not drawn) (H-Glu-Val-OH; configuration not given here)	–	–	inactive
Brc1ccc(/C(N=N/C(=N\Sc2ccccc2)c2ccc(Br)cc2)=N/Sc2ccccc2)cc1	> 50.1 µM	> 50.1 µM	–
O=C1CCCC(=O)N1n1c(Cc2ccc(Cl)cc2)n[nH]c1=O	> 200 µM	> 200 µM	–
CCc1c(CN)c(CC)c(CNC2=NCCN2)c(CC)c1CNC1=NCCN1	> 200 µM	> 200 µM	–
CCC12CCCN(Cc3ccccc3)C1c1c(n(C)c3ccccc13)C(C(=O)OC)C2 (stereo not drawn)	> 32.4 µM	> 32.4 µM	–
CCOC(=O)Nc1nc2ccccc2[nH]1	> 200 µM	11.2 µM	–
C[C@]12C[C@H](c3ccccc3)Nc3ccccc3N1C(c1ccccc1)=NO2	> 200 µM	36.3 µM	–
O=C1CC(=O)N2C(=O)CC(=O)N12	> 537 µM	> 537 µM	–
Cc1ccc(-c2n[nH]c(=O)n2N2C(=O)c3ccccc3C2=O)cc1	> 200 µM	> 200 µM	–
CC(=O)OC1CC2C(=S)Nc3cc4c(cc3C(=O)N2C1)OCO4 (stereo not drawn)	> 200 µM	> 200 µM	–
Cc1ccc(CS(=O)(=O)C/N=c2\sc3ccccc3nc2/C=C(\O)c2ccc(Cl)cc2)cc1	> 200 µM	> 200 µM	–
Cn1c(=O)c2c(nc(Nc3ccc(Cl)cc3)n3c(=O)n(-c4ccccc4)c(=O)n23)n(C)c1=O	> 200 µM	145 µM	–
O=C(O)c1ccccc1C(=O)c1ccc(O)cc1	> 200 µM	> 200 µM	–
COC(=O)C(=O)C(C(=O)C(N)=O)c1nc2ccc(C(=O)c3ccccc3)cc2[nH]c1=O (stereo not drawn)	> 85.1 µM	> 85.1 µM	–
Cc1nn2c(=O)c([N+](=O)[O-])c(/C=C/c3ccc(F)cc3)nc2s1	> 200 µM	5.25 µM	–
O=C(c1ccccc1)C1C(c2ccccc2)S(=O)C(c2ccccc2)CC1(O)c1ccccc1 (stereo not drawn)	> 66.1 µM	13.5 µM	–
COc1ccc(/C=C/COC(C)=O)cc1OC	–	–	inactive
